In patent US20250290117A1, “MOLECULAR PHENOTYPIC ANTIMICROBIAL SUSCEPTIBILITY TESTING” (priority 2024, published 2025):

Experiments:
Acinetobacter baumannii = test: Traditional culture-based antimicrobial susceptibility test; assay type: cell-based
Description: Table 2 illustrates the results of an example antimicrobial agent susceptibility test of the current application versus a traditional culture-based antimicrobial agent susceptibility test for […], in accordance with one or more embodiments of the disclosure. This specimen underwent extraction and/or DNA purification prior to PCR. As in Table 1, the results of the test of the current application are similar to the results from the traditional test.
Result Reporting to Healthcare Providers. The results from the antimicrobial exposure are reported to the ordering healthcare provider. This information can be utilized by the healthcare provider when selecting an antimicrobial regimen for their individual patient based on these individual specimen results and patient specific factors. […] The current standard of care for antimicrobial susceptibility testing involves the growth, isolation, and exposure of pathogens to antimicrobials. This traditional culture and sensitivity process can take multiple days to obtain results, limiting the ability of healthcare providers to receive timely results to make actionable changes in patient care or management. Healthcare providers desire a method to obtain antimicrobial susceptibility results with quicker turn-around-time. This application discloses a molecular-based phenotypic antimicrobial susceptibility method which involves pathogen exposure to a panel of antimicrobial agents at their specified minimum inhibitory concentration breakpoints for sensitivity. This method allows for more timely antimicrobial susceptibility results.

[1] = test system: pathogens of clinical samples; test: Molecular phenotypic antimicrobial susceptibility test of clinical samples, direct PCR without a separate DNA purification step (Table 6); assay type: cell-based
Method: Detection of Molecular Phenotypic Antimicrobial Susceptibility. Disclosed herein are the methods for the detection of phenotypic antimicrobial susceptibility via molecular methods. The present invention describes how a specimen 100 with a known microbial load is incubated and then exposed to a panel of antimicrobial agents to determine sensitivity (prevention of growth) or resistance (allowance of growth) to the specific antimicrobial agents tested utilizing molecular methods.
Sample Collection. Specimens 100 are collected from patients using sterile collection processes that are employed in routine clinical care. Specimens are transported to the testing facility in boric acid preservative.
Preparation of the Specimens for Testing. […] The process for pathogen isolation includes steps of harvesting the pathogen (e.g., via centrifugation), isolating pathogen DNA via a DNA isolation and/or purification kit, and performing PCR on the pathogen DNA via PCR components (e.g., primers, enzymes, buffers) as would be known to the skilled artisan. […] This aliquot is used for antimicrobial susceptibility testing if indicated based on the pathogen detection results. […] Specimens 100 with lower pathogen loads could also be utilized in the antibiotic susceptibility phase of testing with or without a longer incubation period.
Preparation of Antimicrobial Susceptibility Testing Plates. Antimicrobial solutions are prepared at known concentrations. The specific antimicrobials and their concentrations are selected based on the pathogen of interest and the described antimicrobial resistance breakpoints for that specimen pathogen and antimicrobial combination. These antimicrobials have been selected based on those commonly utilized by healthcare providers in routine clinical care for the specific type of suspected infection. The number and types of antimicrobials utilized can be customized based on the infection source, pathogen detected, patient-specific factors such as allergies or other health conditions (e.g., chronic kidney disease or concurrent medication use), or healthcare provider preferences such as antimicrobial availability or cost.
The antimicrobial solutions are prepared in liquid culture media (such as Muller Hinton Broth) to achieve the desired antimicrobial concentration and are then stored at −80° C. until use. For a given specimen, each antimicrobial is tested at a single or multiple antimicrobial concentration(s) which is its established breakpoints for sensitivity. The antimicrobial solutions are prepared and plated out for each specific pathogen. […] This allows for evaluation of pathogen load when no antimicrobial is present.
Specimen Exposure to Antimicrobial Agents. The 1 mL aliquot of the specimen 100 previously mixed with culture media and incubated is obtained. Using optical density measurements as a guide, the specimen 100 is diluted to 0.5 McFarland.
Antimicrobial exposure plates are typically placed into an incubator for 12-16 hours.
Nucleic Acid Amplification of Antimicrobial Agent Exposed Pathogens. The antimicrobial exposure plate is removed after the period of incubation. The specimen then undergoes a purification or lysis step. For example, the specimen may undergo a purification step (e.g., magnetic bead-based or other separation protocol to isolate genetic material). In another example, the specimen may undergo a cell lysis step. For example, buffer (e.g., lysis buffer) may be added and incubated in the thermal cycler for preparation for direct PCR. Next, the specimen may undergo a polymerase chain reaction (PCR) testing protocol, whereby a semi-quantitative PCR method is utilized. This may be completed either with or without a specific extraction protocol step. The pathogens can be individually targeted and detected, or a universal genetic sequence can be utilized to detect the antimicrobial susceptibility of the specimen as a whole.

[2] = E. coli, clinical sample of r10-r24
[3] = E. coli, clinical sample of r158-r172
[4] = K. aerogenes, clinical sample of r136-r150
[5] = K. pneumoniae, clinical sample of r121-r135
[6] = M. morganii, clinical sample of r55-r69
[7] = M. morganii, clinical sample of r70-r84
[8] = P. mirabilis, clinical sample of r25-r39
[9] = P. mirabilis, clinical sample of r40-r54
[10] = E. coli, clinical sample of r10-r24, Ct control avg 12.97
[11] = E. coli, clinical sample of r158-r172, Ct control avg 12.894
[12] = K. aerogenes, clinical sample of r136-r150, Ct control avg 13.854
[13] = K. pneumoniae, clinical sample of r121-r135, Ct control avg […]
[14] = M. morganii, clinical sample of r55-r69, Ct control avg 12.09
[15] = M. morganii, clinical sample of r70-r84, Ct control avg 11.677
[16] = P. mirabilis, clinical sample of r25-r39, Ct control avg 11.801
[17] = P. mirabilis, clinical sample of r40-r54, Ct control avg 10.06

Row | Compound | Traditional Culture Result (Acinetobacter baumannii; A. baumannii isolate 1) | Traditional Culture Result (Acinetobacter baumannii; A. baumannii isolate 2) | Traditional Culture Result (Acinetobacter baumannii; A. baumannii isolate 3) | Traditional Culture Result (Acinetobacter baumannii; A. baumannii isolate 4) | Traditional Culture Result (Acinetobacter baumannii; A. baumannii isolate 5) | Molecular Antibiotic Susceptibility Result [1, 2] | Molecular Antibiotic Susceptibility Result [1, 3] | Molecular Antibiotic Susceptibility Result [1, 4] | Molecular Antibiotic Susceptibility Result [1, 5] | Molecular Antibiotic Susceptibility Result [1, 6] | Molecular Antibiotic Susceptibility Result [1, 7] | Molecular Antibiotic Susceptibility Result [1, 8] | Molecular Antibiotic Susceptibility Result [1, 9] | Ct [1, 10] | Ct [1, 11] | Ct [1, 12] | Ct [1, 13] | Ct [1, 14] | Ct [1, 15] | Ct [1, 16] | further results
1 | CO/N=C(\C(=O)N[C@@H]1C(=O)N2C(C(=O)[O-])=C(C[N+]3(C)CCCC3)CS[C@H]12)c1csc(N)n1 [Cefepime] | Resistant | Resistant | Sensitive | Resistant | Resistant | Sensitive (Antimicrobial wells with pathogen load detected below the control wells (typically >2 cycle thresholds later) may be reported as Sensitive) | Sensitive (Antimicrobial wells with pathogen load detected below the control wells (typically >2 cycle thresholds later) may be reported as Sensitive) | Sensitive (Antimicrobial wells with pathogen load detected below the control wells (typically >2 cycle thresholds later) may be reported as Sensitive) | Sensitive (Antimicrobial wells with pathogen load detected below the control wells (typically >2 cycle thresholds later) may be reported as Sensitive) | Sensitive (Antimicrobial wells with pathogen load detected below the control wells (typically >2 cycle thresholds later) may be reported as Sensitive) | Sensitive (Antimicrobial wells with pathogen load detected below the control wells (typically >2 cycle thresholds later) may be reported as Sensitive) | Sensitive (Antimicrobial wells with pathogen load detected below the control wells (typically >2 cycle thresholds later) may be reported as Sensitive) | Sensitive (Antimicrobial wells with pathogen load detected below the control wells (typically >2 cycle thresholds later) may be reported as Sensitive) | – | – | – | – | – | – | – | –
2 | CO/N=C(\C(=O)N[C@@H]1C(=O)N2C(C(=O)O)=C(CSc3nc(=O)c(=O)[nH]n3C)CS[C@H]12)c1csc(N)n1 [Ceftriaxone] | Resistant | Resistant | Resistant | Resistant | Resistant | Sensitive (Antimicrobial wells with pathogen load detected below the control wells (typically >2 cycle thresholds later) may be reported as Sensitive) | Sensitive (Antimicrobial wells with pathogen load detected below the control wells (typically >2 cycle thresholds later) may be reported as Sensitive) | Sensitive (Antimicrobial wells with pathogen load detected below the control wells (typically >2 cycle thresholds later) may be reported as Sensitive) | Sensitive (Antimicrobial wells with pathogen load detected below the control wells (typically >2 cycle thresholds later) may be reported as Sensitive) | Sensitive (Antimicrobial wells with pathogen load detected below the control wells (typically >2 cycle thresholds later) may be reported as Sensitive) | Sensitive (Antimicrobial wells with pathogen load detected below the control wells (typically >2 cycle thresholds later) may be reported as Sensitive) | Sensitive (Antimicrobial wells with pathogen load detected below the control wells (typically >2 cycle thresholds later) may be reported as Sensitive) | Sensitive (Antimicrobial wells with pathogen load detected below the control wells (typically >2 cycle thresholds later) may be reported as Sensitive) | 24.791 | 30.396 | 29.137 | 28.004 | 29.28 | 28.625 | 22.976 | Ct [1, 17]: 28.394
3 | C[C@@H](O)[C@H]1C(=O)N2C(C(=O)O)=C(S[C@@H]3CN[C@H](C(=O)N(C)C)C3)[C@H](C)[C@H]12 [Meropenem] | Resistant | Resistant | Resistant | Resistant | Resistant | Sensitive (Antimicrobial wells with pathogen load detected below the control wells (typically >2 cycle thresholds later) may be reported as Sensitive) | Sensitive (Antimicrobial wells with pathogen load detected below the control wells (typically >2 cycle thresholds later) may be reported as Sensitive) | Sensitive (Antimicrobial wells with pathogen load detected below the control wells (typically >2 cycle thresholds later) may be reported as Sensitive) | Sensitive (Antimicrobial wells with pathogen load detected below the control wells (typically >2 cycle thresholds later) may be reported as Sensitive) | Sensitive (Antimicrobial wells with pathogen load detected below the control wells (typically >2 cycle thresholds later) may be reported as Sensitive) | Sensitive (Antimicrobial wells with pathogen load detected below the control wells (typically >2 cycle thresholds later) may be reported as Sensitive) | Sensitive (Antimicrobial wells with pathogen load detected below the control wells (typically >2 cycle thresholds later) may be reported as Sensitive) | Sensitive (Antimicrobial wells with pathogen load detected below the control wells (typically >2 cycle thresholds later) may be reported as Sensitive) | 24.598 | 30.093 | 28.604 | 26.606 | 30.024 | 29.381 | 32.513 | Ct [1, 17]: 31.805
